The values that follow come from patent US20150344540A1, “NOVEL GLP-1 RECEPTOR AGONISTS WITH CHOLESTEROL EFFLUX ACTIVITY” (NOVO NORDISK A/S, priority 2012, published 2015).

Molecules are shown by their SMILES. Where a SMILES comes first, the peptide text is derived from it. [ ]: non-standard residue; d: D form. Aib = CC(C)(N)C(=O)O

The first test has as its system Mouse monocyte/macrophage cell line, RAW 264.7. In words: Cholesterol efflux assay (3H-cholesterol, macrophage cell line). In kind it is cell-based. The settings on record: RAW 264.7, 4 hrs incubation, 0.1% human serum albumin, ABCA1-mediated efflux.
In the case of `CC[C@H](C)[C@H](NC(=O)[C@H](Cc1ccccc1)NC(=O)[C@H](CCC(=O)O)NC(=O)[C@H](CCCCN)NC(=O)[C@@H](NC(=O)[C@H](C)NC(=O)[C@H](CCC(=O)O)NC(=O)CNC(=O)[C@H](CCC(=O)O)NC(=O)[C@H](CC(C)C)NC(=O)[C@H](Cc1ccc(O)cc1)NC(=O)[C@H](CO)NC(=O)[C@H](CO)NC(=O)[C@@H](NC(=O)[C@H](CC(=O)O)NC(=O)[C@H](CO)NC(=O)[C@@H](NC(=O)[C@H](Cc1ccccc1)NC(=O)[C@@H](NC(=O)CNC(=O)[C@H](CCC(=O)O)NC(=O)C(C)(C)NC(=O)[C@@H](N)Cc1c[nH]cn1)[C@@H](C)O)[C@@H](C)O)C(C)C)C(C)C)C(=O)N[C@@H](C)C(=O)N[C@@H](Cc1c[nH]c2ccccc12)C(=O)N[C@@H](CC(C)C)C(=O)N[C@H](C(=O)N[C@@H](CCC(=O)O)C(=O)N[C@@H](CCCCN)C(=O)NC(C)(C)C(=O)N[C@@H](CCCCN)C(=O)N[C@@H](CCC(=O)O)C(=O)N[C@@H](Cc1ccccc1)C(=O)N[C@@H](CC(C)C)C(=O)N[C@@H](CCC(=O)O)C(=O)O)C(C)C` [Compound 100, [Aib8,Glu23,Val25,Glu34,Lys35,Aib36,Lys37]-GLP-1-(7-37)-peptidyl-Glu-Phe-Leu-Glu], the “4 h Cholesterol Efflux Emax” value was found to be 104%.
With `CC[C@H](C)[C@H](NC(=O)[C@H](Cc1ccccc1)NC(=O)[C@H](CCC(=O)O)NC(=O)[C@H](CCCCN)NC(=O)[C@@H](NC(=O)[C@H](C)NC(=O)[C@H](CCC(=O)O)NC(=O)[C@@H]1CCCN1C(=O)[C@H](CCC(=O)O)NC(=O)[C@H](CC(C)C)NC(=O)[C@H](Cc1ccc(O)cc1)NC(=O)[C@H](CO)NC(=O)[C@H](CO)NC(=O)[C@@H](NC(=O)[C@H](CC(=O)O)NC(=O)[C@H](CO)NC(=O)[C@@H](NC(=O)[C@H](Cc1ccccc1)NC(=O)[C@@H](NC(=O)CNC(=O)[C@H](CCC(=O)O)NC(=O)C(C)(C)NC(=O)[C@@H](N)Cc1c[nH]cn1)[C@@H](C)O)[C@@H](C)O)C(C)C)C(C)C)C(=O)N[C@@H](C)C(=O)N[C@@H](Cc1c[nH]c2ccccc12)C(=O)N[C@@H](CC(C)C)C(=O)N[C@H](C(=O)N[C@@H](CCC(=O)O)C(=O)N[C@@H](CCCCN)C(=O)NC(C)(C)C(=O)N[C@@H](CCCCN)C(=O)N[C@@H](CCC(=O)O)C(=O)N[C@@H](Cc1ccccc1)C(=O)N[C@@H](CC(C)C)C(N)=O)C(C)C` [Compound 101, [Aib8,Pro22,Glu23,Val25,Glu34,Lys35,Aib36,Lys37]-GLP-1-(7-37)-peptidyl-Glu-Phe-Leu amide] (H-H[Aib]EGTFTSDVSSYLEPEAVKEFIAWLVEK[Aib]KEFL-NH2; N-terminus assumed), the “4 h Cholesterol Efflux Emax” value is reported as 92%.
For `CC[C@H](C)[C@H](NC(=O)[C@H](Cc1ccccc1)NC(=O)[C@H](CCC(N)=O)NC(=O)[C@H](CCCCN)NC(=O)[C@@H](NC(=O)[C@H](C)NC(=O)[C@H](CCC(N)=O)NC(=O)CNC(=O)[C@H](CCC(=O)O)NC(=O)[C@H](CC(C)C)NC(=O)[C@H](Cc1ccc(O)cc1)NC(=O)[C@H](CO)NC(=O)[C@H](CO)NC(=O)[C@@H](NC(=O)[C@H](CC(=O)O)NC(=O)[C@H](CO)NC(=O)[C@@H](NC(=O)[C@H](Cc1ccccc1)NC(=O)[C@@H](NC(=O)CNC(=O)[C@H](CCC(=O)O)NC(=O)C(C)(C)NC(=O)[C@@H](N)Cc1c[nH]cn1)[C@@H](C)O)[C@@H](C)O)C(C)C)C(C)C)C(=O)N[C@@H](C)C(=O)N[C@@H](Cc1c[nH]c2ccccc12)C(=O)N[C@@H](CC(C)C)C(=O)N[C@H](C(=O)N[C@@H](CCC(N)=O)C(=O)N[C@@H](CCCCN)C(=O)NC(C)(C)C(=O)N[C@@H](CCCCN)C(=O)N[C@@H](CCC(N)=O)C(=O)N[C@@H](Cc1ccccc1)C(=O)N[C@@H](CC(C)C)C(N)=O)C(C)C` [Compound 102, [Aib8,Val25,Gln27,Gln34,Lys35,Aib36,Lys37]-GLP-1-(7-37)-peptidyl-Gln-Phe-Leu amide] (H-H[Aib]EGTFTSDVSSYLEGQAVKQFIAWLVQK[Aib]KQFL-NH2), the “4 h Cholesterol Efflux Emax” value was 100%.
On the same count and under the same terms, then `CC[C@H](C)[C@H](NC(=O)[C@H](Cc1ccccc1)NC(=O)[C@H](CCC(=O)O)NC(=O)[C@H](CCCCN)NC(=O)[C@@H](NC(=O)[C@H](C)NC(=O)[C@H](CCC(=O)O)NC(=O)[C@H](CCC(=O)O)NC(=O)[C@H](CCC(=O)O)NC(=O)[C@H](CC(C)C)NC(=O)[C@H](Cc1ccc(O)cc1)NC(=O)[C@H](CO)NC(=O)[C@H](CO)NC(=O)[C@@H](NC(=O)[C@H](CC(=O)O)NC(=O)[C@H](CO)NC(=O)[C@@H](NC(=O)[C@H](Cc1ccccc1)NC(=O)[C@@H](NC(=O)CNC(=O)[C@H](CCC(=O)O)NC(=O)C(C)(C)NC(=O)[C@@H](N)Cc1c[nH]cn1)[C@@H](C)O)[C@@H](C)O)C(C)C)C(C)C)C(=O)N[C@@H](C)C(=O)N[C@@H](Cc1c[nH]c2ccccc12)C(=O)N[C@@H](CC(C)C)C(=O)N[C@H](C(=O)N[C@@H](CCC(=O)O)C(=O)N[C@@H](CCCCN)C(=O)N[C@H](C(=O)N[C@@H](CCCCN)C(=O)N[C@@H](CCC(=O)O)C(=O)N[C@@H](CC(C)C)C(=O)N[C@@H](CC(C)C)C(N)=O)C(C)C)C(C)C` [Compound 109, [Aib8,Glu22,Glu23,Val25,Glu34,Lys35,Val36,Lys37]-GLP-1-(7-37)-peptidyl-Glu-Leu-Leu amide] (H-H[Aib]EGTFTSDVSSYLEEEAVKEFIAWLVEKVKELL-NH2), with 99%.
As for `CC[C@H](C)[C@H](NC(=O)[C@H](Cc1ccccc1)NC(=O)[C@H](CCC(=O)O)NC(=O)[C@H](CCCCN)NC(=O)[C@@H](NC(=O)[C@H](C)NC(=O)[C@H](CCC(=O)O)NC(=O)CNC(=O)[C@H](CCC(=O)O)NC(=O)[C@H](CC(C)C)NC(=O)[C@H](Cc1ccc(O)cc1)NC(=O)[C@H](CO)NC(=O)[C@H](CO)NC(=O)[C@@H](NC(=O)[C@H](CC(=O)O)NC(=O)[C@H](CO)NC(=O)[C@@H](NC(=O)[C@H](Cc1ccccc1)NC(=O)[C@@H](NC(=O)CNC(=O)[C@H](CCC(=O)O)NC(=O)C(C)(C)NC(=O)[C@@H](N)Cc1c[nH]cn1)[C@@H](C)O)[C@@H](C)O)C(C)C)C(C)C)C(=O)N[C@@H](C)C(=O)N[C@@H](Cc1c[nH]c2ccccc12)C(=O)N[C@@H](CC(C)C)C(=O)N[C@H](C(=O)N[C@@H](CCC(=O)O)C(=O)N[C@@H](CCCCN)C(=O)N[C@H](C(=O)N[C@@H](CCCCN)C(=O)N[C@@H](CC(=O)O)C(=O)N[C@@H](Cc1ccccc1)C(=O)N[C@@H](CC(C)C)C(N)=O)C(C)C)C(C)C` [Compound 114, [Aib8,Glu23,Val25,Glu34,Lys35,Val36,Lys37]-GLP-1-(7-37)-peptidyl-Asp-Phe-Leu amide] (H-H[Aib]EGTFTSDVSSYLEGEAVKEFIAWLVEKVKDFL-NH2), the “4 h Cholesterol Efflux Emax” value is 103%.
On the same count and under the same terms, to `CC[C@H](C)[C@H](NC(=O)[C@H](Cc1ccccc1)NC(=O)[C@H](CCC(=O)O)NC(=O)[C@H](CCCCN)NC(=O)[C@@H](NC(=O)[C@H](C)NC(=O)[C@H](CCC(=O)O)NC(=O)CNC(=O)[C@H](CCC(=O)O)NC(=O)[C@H](CC(C)C)NC(=O)[C@H](Cc1ccc(O)cc1)NC(=O)[C@H](CO)NC(=O)[C@H](CO)NC(=O)[C@@H](NC(=O)[C@H](CC(=O)O)NC(=O)[C@H](CO)NC(=O)[C@@H](NC(=O)[C@H](Cc1ccccc1)NC(=O)[C@@H](NC(=O)CNC(=O)[C@H](CCC(=O)O)NC(=O)C(C)(C)NC(=O)[C@@H](N)Cc1c[nH]cn1)[C@@H](C)O)[C@@H](C)O)C(C)C)C(C)C)C(=O)N[C@@H](C)C(=O)N[C@@H](Cc1c[nH]c2ccccc12)C(=O)N[C@@H](CC(C)C)C(=O)N[C@H](C(=O)N[C@@H](CCC(=O)O)C(=O)N[C@@H](CCCCN)C(=O)N[C@H](C(=O)N[C@@H](CCCCN)C(=O)N[C@@H](CCC(=O)O)C(=O)N[C@@H](CC(C)C)C(=O)N[C@@H](CC(C)C)C(N)=O)C(C)C)C(C)C` [Compound 119, [Aib8,Glu23,Val25,Glu34,Lys35,Val36,Lys37]-GLP-1-(7-37)-peptidyl-Glu-Leu-Leu amide] (H-H[Aib]EGTFTSDVSSYLEGEAVKEFIAWLVEKVKELL-NH2) belongs 117%.

Still in this test, the particulars now being: read-out: 4 h Cholesterol Efflux EC50; RAW 264.7, 4 hrs incubation, 0.1% human serum albumin, ABCA1-mediated efflux (CPT-cAMP induced minus non-induced).
Usually EC50 stands for the midpoint of the concentration-response curve. On to `CC[C@H](C)[C@H](NC(=O)[C@H](Cc1ccccc1)NC(=O)[C@H](CCC(=O)O)NC(=O)[C@H](CCCCN)NC(=O)[C@@H](NC(=O)[C@H](C)NC(=O)[C@H](CCC(=O)O)NC(=O)CNC(=O)[C@H](CCC(=O)O)NC(=O)[C@H](CC(C)C)NC(=O)[C@H](Cc1ccc(O)cc1)NC(=O)[C@H](CO)NC(=O)[C@H](CO)NC(=O)[C@@H](NC(=O)[C@H](CC(=O)O)NC(=O)[C@H](CO)NC(=O)[C@@H](NC(=O)[C@H](Cc1ccccc1)NC(=O)[C@@H](NC(=O)CNC(=O)[C@H](CCC(=O)O)NC(=O)C(C)(C)NC(=O)[C@@H](N)Cc1c[nH]cn1)[C@@H](C)O)[C@@H](C)O)C(C)C)C(C)C)C(=O)N[C@@H](C)C(=O)N[C@@H](Cc1c[nH]c2ccccc12)C(=O)N[C@@H](CC(C)C)C(=O)N[C@H](C(=O)N[C@@H](CCC(=O)O)C(=O)N[C@@H](CCCCN)C(=O)NC(C)(C)C(=O)N[C@@H](CCCCN)C(=O)N[C@@H](CCC(=O)O)C(=O)N[C@@H](Cc1ccccc1)C(=O)N[C@@H](CC(C)C)C(=O)N[C@@H](CCC(=O)O)C(=O)O)C(C)C` [Compound 100, [Aib8,Glu23,Val25,Glu34,Lys35,Aib36,Lys37]-GLP-1-(7-37)-peptidyl-Glu-Phe-Leu-Glu], for which the EC50 came to 690 nM.
With `CC[C@H](C)[C@H](NC(=O)[C@H](Cc1ccccc1)NC(=O)[C@H](CCC(=O)O)NC(=O)[C@H](CCCCN)NC(=O)[C@@H](NC(=O)[C@H](C)NC(=O)[C@H](CCC(=O)O)NC(=O)[C@@H]1CCCN1C(=O)[C@H](CCC(=O)O)NC(=O)[C@H](CC(C)C)NC(=O)[C@H](Cc1ccc(O)cc1)NC(=O)[C@H](CO)NC(=O)[C@H](CO)NC(=O)[C@@H](NC(=O)[C@H](CC(=O)O)NC(=O)[C@H](CO)NC(=O)[C@@H](NC(=O)[C@H](Cc1ccccc1)NC(=O)[C@@H](NC(=O)CNC(=O)[C@H](CCC(=O)O)NC(=O)C(C)(C)NC(=O)[C@@H](N)Cc1c[nH]cn1)[C@@H](C)O)[C@@H](C)O)C(C)C)C(C)C)C(=O)N[C@@H](C)C(=O)N[C@@H](Cc1c[nH]c2ccccc12)C(=O)N[C@@H](CC(C)C)C(=O)N[C@H](C(=O)N[C@@H](CCC(=O)O)C(=O)N[C@@H](CCCCN)C(=O)NC(C)(C)C(=O)N[C@@H](CCCCN)C(=O)N[C@@H](CCC(=O)O)C(=O)N[C@@H](Cc1ccccc1)C(=O)N[C@@H](CC(C)C)C(N)=O)C(C)C` [Compound 101, [Aib8,Pro22,Glu23,Val25,Glu34,Lys35,Aib36,Lys37]-GLP-1-(7-37)-peptidyl-Glu-Phe-Leu amide] (H-H[Aib]EGTFTSDVSSYLEPEAVKEFIAWLVEK[Aib]KEFL-NH2; N-terminus assumed), the EC50 stood at 280 nM.
